Where two headings read alike, the source gives them in different places.

The conditions of series [1]: single 200 mg oral dose, cited from earlier work.
Series [2] in a line: Particle size distribution (PSD) measurement by laser light diffractometry, Malvern Mastersizer 2000. Type of series: physicochemical. The note with it: starting powder before wet-medium-milling. As to the method: In this document, any particle size characteristic of the wet-media-milled progesterone particles is determined using laser light diffractometry and is based on a volume weighted particle size distribution, unless specifically indicated otherwise. […] As will be understood by those skilled in the art, the term "Dv50" as used herein refers to the point in the size distribution, up to and including which, 50% of the total volume of material in the sample is 'contained'. […] Particle size distribution ('PSD') characteristics are determined using a Malvern® Mastersizer 2000 apparatus equipped with a Hydro 2000 SM wet sample dispersion unit, operated with the settings summarized in table 1. Table 1 - PSD measurement settings [table]

`CC(=O)[C@H]1CC[C@H]2[C@@H]3CCC4=CC(=O)CC[C@]4(C)[C@H]3CC[C@]12C` [progesterone, pregn-4-ene-3,20-dione]: the “peak levels of progesterone compared to plain milled progesterone” value in series [1] (as a consequence of micronization) is reported as 1.4 fold; in series [1] (as a consequence of the suspension in oil), 1.2 fold; in series [1] (combination of micronization and the suspension in oil), 3.2 fold. Moreover, in series [2], the Dv10 came to 4.7. The molecule also gave a Dv50 in series [2] of 38.4. The molecule also came in with a Dv90 in series [2] of 74.6.
